Our source for the TGI and GI50 values is PubChem BioAssay (NCI).

The structures appear in SMILES notation.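 How tested: cells in 96-well plates exposed to compound for 48 hours at five concentrations. GI50 is the concentration that inhibits growth by half. TGI is the concentration that stops growth completely.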

Among the test systems are SK-MEL-5 melanoma; CCRF-CEM leukemia; HOP-62 NSCLC; SR leukemia; MOLT-4 leukemia; IGROV1 ovarian; OVCAR-4 ovarian; NCI-H522 lung; M14 melanoma; SK-MEL-28 melanoma.
Experiment in all cases: NCI-60 cell line screen, 48 h

Regarding `Cc1cccc(N2C(=O)/C(=C/c3ccc(N(CCC#N)CCC#N)cc3C)N=C2c2cc([N+](=O)[O-])ccc2Cl)c1`, the TGI in the assay with SK-MEL-5 melanoma, with CCRF-CEM leukemia, in the assay on HOP-62 NSCLC, with SR leukemia, in the assay on MOLT-4 leukemia and with IGROV1 ovarian was over 100 µM throughout. Besides, the TGI with OVCAR-4 ovarian, in the assay on NCI-H522 lung, in the assay on M14 melanoma and in the assay on SK-MEL-28 melanoma was over 100 µM throughout.
For `C#Cc1cccc(Nc2ncnc3ccc(-c4cncc(NS(C)(=O)=O)c4)cc23)c1`, the GI50 was 1.63 µM with SK-MEL-5 melanoma; 0.82 µM in the assay with CCRF-CEM leukemia; 1.84 µM with HOP-62 NSCLC; 1.37 µM in the assay with SR leukemia; 1.41 µM with MOLT-4 leukemia; 0.309 µM in the assay with IGROV1 ovarian. The GI50 was 3.59 µM in the assay on OVCAR-4 ovarian, 1.06 µM in the assay with NCI-H522 lung, 2.33 µM in the assay on M14 melanoma and 1.47 µM in the assay with SK-MEL-28 melanoma. Moreover, the TGI was 3.06 µM in the assay with SK-MEL-5 melanoma; 7.31 µM with CCRF-CEM leukemia; 14.1 µM with HOP-62 NSCLC; 5.74 µM in the assay with SR leukemia; 4.45 µM with MOLT-4 leukemia; 1.68 µM with IGROV1 ovarian. The TGI was found to be 75.9 µM with OVCAR-4 ovarian, 3.28 µM with NCI-H522 lung, 11.2 µM with M14 melanoma and 14.1 µM with SK-MEL-28 melanoma.
For the compound `CCOC(=N)CC(=O)NC(C)c1ccccc1` (stereo not drawn), the TGI in the assay with SK-MEL-5 melanoma, in the assay on CCRF-CEM leukemia, in the assay with HOP-62 NSCLC, with SR leukemia, with MOLT-4 leukemia and in the assay with IGROV1 ovarian was over 100 µM each time. Also, the TGI in the assay with OVCAR-4 ovarian, with NCI-H522 lung, in the assay with M14 melanoma and with SK-MEL-28 melanoma was over 100 µM in each case.
For `CCCCCCCCCCCCNC(=O)[C@H]1CSC(c2ccc(OC)c(F)c2)N1` (stereo partly drawn), the GI50 in the assay on SK-MEL-5 melanoma was 1.27 µM; with CCRF-CEM leukemia it was 0.225 µM; in the assay with HOP-62 NSCLC, 0.273 µM; with SR leukemia, 0.324 µM; with MOLT-4 leukemia, 0.214 µM; in the assay on IGROV1 ovarian, 0.325 µM. The GI50 with OVCAR-4 ovarian is 0.699 µM; with NCI-H522 lung, 1.82 µM; in the assay with M14 melanoma it was 0.191 µM; with SK-MEL-28 melanoma, 0.342 µM. The TGI in the assay on SK-MEL-5 melanoma was found to be 2.57 µM; in the assay on CCRF-CEM leukemia it was 0.579 µM; in the assay on HOP-62 NSCLC it was 0.748 µM; in the assay on SR leukemia, 1.59 µM; with MOLT-4 leukemia it was 0.469 µM; in the assay on IGROV1 ovarian, 0.902 µM. Moreover, the TGI with OVCAR-4 ovarian stood at 1.99 µM; in the assay with NCI-H522 lung it was 3.64 µM; in the assay on M14 melanoma it was 0.374 µM; with SK-MEL-28 melanoma it was 1.11 µM.
As for `CN1CCN(C(=S)SCN2C(=O)c3ccccc3S2(=O)=O)CC1`, the GI50 with SK-MEL-5 melanoma was 16.1 µM; in the assay on CCRF-CEM leukemia it was 2.23 µM; in the assay on HOP-62 NSCLC, over 100 µM; in the assay on SR leukemia, 4.04 µM; in the assay with MOLT-4 leukemia it was 5.08 µM; in the assay with IGROV1 ovarian, 44.8 µM. The GI50 in the assay on OVCAR-4 ovarian was 23.2 µM; with NCI-H522 lung, 7.26 µM; in the assay with M14 melanoma, 7.93 µM; in the assay on SK-MEL-28 melanoma, 14.4 µM. Further, the TGI with SK-MEL-5 melanoma is 38.9 µM; with HOP-62 NSCLC it was over 100 µM; in the assay on SR leukemia, 13.4 µM; with MOLT-4 leukemia it was 25.7 µM; with IGROV1 ovarian, over 100 µM; in the assay on OVCAR-4 ovarian, 72.3 µM. Besides, the TGI with NCI-H522 lung was determined as 34.1 µM; in the assay on M14 melanoma, 22.8 µM; in the assay on SK-MEL-28 melanoma, 37.5 µM.
With `C=C(CC1(CC(=C)c2ccc(C(=O)O)cc2)C(=O)N(C)C(=O)N(C)C1=O)c1ccc(C(=O)O)cc1`, the GI50 in the assay on SK-MEL-5 melanoma was 73.1 µM; in the assay on CCRF-CEM leukemia, 65.2 µM; in the assay with HOP-62 NSCLC, 66.5 µM; in the assay with SR leukemia, 23.9 µM; in the assay with MOLT-4 leukemia it was 38.3 µM; in the assay with IGROV1 ovarian, 47.4 µM. For the same compound, the GI50 in the assay on OVCAR-4 ovarian was 23.2 µM; in the assay with NCI-H522 lung, 31.3 µM; in the assay with M14 melanoma, over 100 µM; in the assay with SK-MEL-28 melanoma it was over 100 µM. The TGI with SK-MEL-5 melanoma, with CCRF-CEM leukemia, with HOP-62 NSCLC, with SR leukemia, with MOLT-4 leukemia and in the assay with IGROV1 ovarian was over 100 µM in each case. Besides, the TGI in the assay on OVCAR-4 ovarian, in the assay on NCI-H522 lung, with M14 melanoma and with SK-MEL-28 melanoma was over 100 µM in each case.
For the compound `CC[C@@]1(O)C(=O)OCc2c1cc1n(c2=O)Cc2cc3c(NC(C)=O)c(O)ccc3nc2-1`, the GI50 in the assay on SK-MEL-5 melanoma was 2.08 µM; in the assay on CCRF-CEM leukemia, 0.0542 µM; in the assay with HOP-62 NSCLC it was 0.214 µM; in the assay with SR leukemia it was under 0.0148 µM; in the assay on MOLT-4 leukemia, 0.133 µM; in the assay on IGROV1 ovarian, 6.27 µM. The GI50 was 14.6 µM with OVCAR-4 ovarian, 0.565 µM in the assay with NCI-H522 lung, 1.04 µM in the assay with M14 melanoma and over 25.9 µM with SK-MEL-28 melanoma. Moreover, the TGI in the assay with SK-MEL-5 melanoma is 8.97 µM; in the assay with CCRF-CEM leukemia it was 1.07 µM; with HOP-62 NSCLC it was 0.631 µM; in the assay on SR leukemia it was 0.108 µM; in the assay on MOLT-4 leukemia, 0.968 µM; with IGROV1 ovarian, over 88.5 µM. In addition, the TGI is 44.7 µM in the assay on OVCAR-4 ovarian, 14.5 µM in the assay on NCI-H522 lung, 15.8 µM in the assay on M14 melanoma and over 100 µM with SK-MEL-28 melanoma.
With `O=[N+]([O-])c1cccc(-c2ncc(-c3ccc(Cl)cc3Cl)[nH]2)c1`, the GI50 was 4.59 µM with SK-MEL-5 melanoma; 1.49 µM in the assay with CCRF-CEM leukemia; 9.53 µM with HOP-62 NSCLC; 0.471 µM with SR leukemia; 2.49 µM with MOLT-4 leukemia; 6.65 µM with IGROV1 ovarian. Further, the GI50 in the assay on OVCAR-4 ovarian is 3.18 µM; with NCI-H522 lung it was 10.3 µM; in the assay with M14 melanoma it was 8.35 µM; in the assay with SK-MEL-28 melanoma, 1.79 µM. For the same compound, the TGI came to 9.23 µM in the assay on SK-MEL-5 melanoma; 4.48 µM in the assay with CCRF-CEM leukemia; 26.8 µM in the assay on HOP-62 NSCLC; 2.44 µM in the assay on SR leukemia; 6.34 µM in the assay on MOLT-4 leukemia; 13.5 µM in the assay with IGROV1 ovarian. The TGI is 12.1 µM in the assay with OVCAR-4 ovarian, over 27.2 µM in the assay with NCI-H522 lung, 26.9 µM in the assay with M14 melanoma and 3.72 µM with SK-MEL-28 melanoma.
For `Cc1cc2c(cc1Cl)SC1=NN(C)C(c3ccccc3O)N1S2(=O)=O` (stereo not drawn), the GI50 in the assay on SK-MEL-5 melanoma is 57 µM; in the assay with CCRF-CEM leukemia, 75.4 µM; with HOP-62 NSCLC, 88.5 µM; in the assay on SR leukemia, 36.6 µM; in the assay on MOLT-4 leukemia, over 100 µM; in the assay on IGROV1 ovarian, 77.8 µM. The GI50 in the assay on OVCAR-4 ovarian was 51.5 µM; in the assay with NCI-H522 lung it was over 100 µM; in the assay with M14 melanoma, 47.5 µM; in the assay with SK-MEL-28 melanoma, 86.2 µM. The TGI with SK-MEL-5 melanoma, in the assay on CCRF-CEM leukemia, in the assay with HOP-62 NSCLC, in the assay with SR leukemia, with MOLT-4 leukemia and in the assay on IGROV1 ovarian was over 100 µM throughout. The TGI in the assay on OVCAR-4 ovarian, in the assay on NCI-H522 lung, in the assay on M14 melanoma and with SK-MEL-28 melanoma was over 100 µM each time.
On to `CCN(CC)CCOc1ccc(C2=C(c3ccccc3)CCc3cc(OC)ccc32)cc1`, for which the GI50 is 0.811 µM with SK-MEL-5 melanoma; 5.59 µM with CCRF-CEM leukemia; 3.08 µM in the assay with HOP-62 NSCLC; 0.518 µM in the assay on SR leukemia; 4.64 µM in the assay on MOLT-4 leukemia; 1.8 µM with IGROV1 ovarian. Further, the GI50 was 3.54 µM in the assay on OVCAR-4 ovarian, 3.03 µM with NCI-H522 lung, 1.88 µM in the assay on M14 melanoma and 1.62 µM in the assay on SK-MEL-28 melanoma. Moreover, the TGI with SK-MEL-5 melanoma is 2.29 µM; with CCRF-CEM leukemia, over 49.3 µM; in the assay with HOP-62 NSCLC, 9.6 µM; in the assay on MOLT-4 leukemia, 21.3 µM; with IGROV1 ovarian, 4.39 µM; with OVCAR-4 ovarian, 17.2 µM. The TGI in the assay on NCI-H522 lung stood at 9.25 µM; with M14 melanoma it was 3.82 µM; with SK-MEL-28 melanoma, 3.19 µM.
